Publication PMC3866048 (Bioorganic & medicinal chemistry, 2011)
Where two headings read alike, the source gives them in different places.

What was measured:
[1] = target: T1, HIV-1 integrase (wild-type IN) (Human immunodeficiency virus type 1 group M subtype B, UniProt P12497); assay: biochemical
[2] = target: T1, HIV-1 integrase (wild-type IN); assay: biochemical; remark: listed apart in the source
[3] = test system: wild-type HIV-1 strain (strain LAI); assay: Anti-HIV-1 activity in infected human PBMCs; type: cell-based; conditions: cytotoxicity versus anti-HIV activity
[4] = IC50 ST (strand transfer), wild-type IN 200 nM, 7.5 mM MnCl2
[5] = Actual ST pIC50, −log IC50 of strand transfer, used for 3D-QSAR

Compound | IC50 [1] | IC50 [2, 4] | also measured
O=Cc1cc(Br)cc(C(=O)NCc2ccc(F)cc2)c1O [Compound 8, 5-Bromo-N-(4-fluorobenzyl)-3-formyl-2-hydroxybenzamide] | > 100 µM |  | 
O=C(O)c1cccc(CCCc2ccccc2)c1O [Compound 9, 2-hydroxy-3-(3-phenylpropyl)benzoic acid] | 91 µM | > 100 µM | 
O=C(O)c1cc(Br)cc(C(=O)/C=C/c2c(Cl)ccc(Cl)c2Cl)c1O [Compound 25, 5-Bromo-2-hydroxy-3-[3-(2,3,6-trichlorophenyl)-acryloyl]benzoic acid] |  | < 3.7 µM | IC50 [2, 5]: 3.98 µM
O=C(O)c1cc(Cl)cc(C(=O)/C=C/c2ccc(Cl)cc2Cl)c1O [Compound 27, 5-Chloro-3-[3-(2,4-dichlorophenyl)-acryloyl]-2-hydroxybenzoic acid] |  | > 100 µM | 
Cc1cc(C)cc(/C=C/C(=O)c2cc(Br)cc(C(=O)O)c2O)c1 [Compound 39, 5-Bromo-3-[3-(3,5-dimethylphenyl)-acryloyl]-2-hydroxybenzoic acid] | > 100 µM |  | 
COc1ccc(/C=C/C(=O)c2cc(Br)cc(C(=O)O)c2O)c(Cl)c1OC [Compound 40, 5-Bromo-3-[3-(2-chloro-3,4-dimethoxyphenyl)-acryloyl]-2-hydroxybenzoic acid] | > 100 µM |  | 
COc1cc(F)c(/C=C/C(=O)c2cc(Br)cc(C(=O)O)c2O)cc1OC [Compound 41, 5-Bromo-3-[3-(2-fluoro-4,5-dimethoxyphenyl)-acryloyl]-2-hydroxybenzoic acid] | > 100 µM |  | 
COc1ccc2cc(C=CC(=O)c3cc(Br)cc(C(=O)O)c3O)ccc2c1 [Compound 48, 5-Bromo-2-hydroxy-3-[3-(6-methoxynaphthalen-2-yl)-acryloyl]benzoic acid] |  | 54 ± 25 µM | IC50 [2, 5]: 55 µM
O=C(O)c1cc(Br)cc(C(=O)/C=C/c2ccc3sccc3c2)c1O [Compound 49, 3-(3-Benzo[b]thiophen-5-yl-acryloyl)-5-bromo-2-hydroxybenzoic acid] |  |  | Selectivity index [3]: up to 4 fold
O=C(O)c1cc(Br)cc(C(=O)/C=C/c2ccccc2-c2ccco2)c1O [Compound 50, 5-Bromo-3-[3-(2-furan-2-yl-phenyl)-acryloyl]-2-hydroxybenzoic acid] | > 100 µM |  | 
O=C(O)c1cc(Br)cc(C(=O)/C=C/c2cccc(OC(F)(F)F)c2)c1O [Compound 52, 5-Bromo-2-hydroxy-3-[3-(3-trifluoromethoxyphenyl)-acryloyl]benzoic acid] | > 100 µM |  | 
N#Cc1cc(Br)cc(C(=O)/C=C/c2c(Cl)ccc(Cl)c2Cl)c1O [Compound 56, 5-Bromo-2-hydroxy-3-[3-(2,3,6--trichlorophenyl)-acryloyl]benzonitrile] | > 100 µM |  | 
Cc1cc(C(=O)O)c(O)c(C(=O)/C=C/c2c(Cl)ccc(Cl)c2Cl)c1 [Compound 57, 2-Hydroxy-5-methyl-3-[3-(2,3,6-trichlorophenyl)-acryloyl]benzoic acid] | > 100 µM |  | Times less active than corresponding Br-substituted compound 25 ([2]; ST inhibition, comparison with compound 25): 13 times
O=C(/C=C/c1cc(Cl)cc(Cl)c1Cl)c1cc(Br)cc([N+](=O)[O-])c1O [Compound 58, 1-(5-Bromo-2-hydroxy-3-nitrophenyl)-3-(2,3,5-trichlorophenyl)propenone] | > 333 µM | 68 ± 5 µM | IC50 [2, 5]: 69.2 µM
O=C(/C=C/c1c(Cl)ccc(Cl)c1Cl)c1cc(Br)cc([N+](=O)[O-])c1O [Compound 59, 1-(5-Bromo-2-hydroxy-3-nitrophenyl)-3-(2,3,6-trichlorophenyl)propenone] | 36 ± 4 µM | 21 ± 3 µM | IC50 [2, 5]: 21.4 µM
O=C(O)c1cc(F)cc(C(=O)CCc2cc(Cl)ccc2Cl)c1O [Compound 60, 3-[3-(2,5-dichlorophenyl)propionyl]-5-fluoro-2-hydroxybenzoic acid] | > 100 µM |  | 
O=C(O)c1cc(Br)cc(C(=O)NCc2ccc(F)cc2)c1O [Compound 61, 5-Bromo-N-(4-fluorobenzyl)-2-hydroxyisophthalamic acid] | > 100 µM |  | 
Cc1cccc(C(=O)NCc2ccc(F)cc2)c1O [Compound 62, N-(4-Fluoro-benzyl)-2-hydroxy-3-methylbenzamide] |  | > 100 µM | 
O=C(NCc1ccc(F)cc1)c1cc(Br)ccc1O [Compound 63, 5-Bromo-N-(4-fluoro-benzyl)-2-hydroxybenzamide] |  | > 100 µM | 
